Reference: patent US20240294572A1, “Antimicrobial Peptides” (priority 2021, published 2024)
Converted amounts (≈) assume the structure as drawn. Non-standard residues stand in square brackets, D forms with d. Residues, ends and D or L forms follow the SMILES beside them. *: point of attachment. Myristoyl = CCCCCCCCCCCCCC(=O)*; Decanoyl = CCCCCCCCCC(=O)*; Octanoyl = CCCCCCCC(=O)*; Hexanoyl = CCCCCC(=O)*

How the values were obtained:
Assay type in all cases: cell-based
S. aureus USA300 LAC [1] = assay: Bacterial membrane permeation (propidium iodide); details: 12.5 μM
Procedure: The experiment was performed as described with minor modifications (Mishra, et al. (2019) Proc. Natl. Acad. Sci., 116:13517-13522). Serially diluted 10×peptides (10 μL each well) were created in 96-well microtiter plates. Propidium iodide (2 μL) at a fixed concentration of 20 μM was added to each well followed by 88 μL of the exponential phase S. aureus USA300 culture (a final OD600˜0.1 in TSB media or PBS). Both daptomycin (98%, TSZChem, MA) and rifamycin (98%, Alfa Aesar, MA) were used as controls. The plate was incubated at 37° C. with continuous shaking at 100 rpm in a FLUOstar® Omega (BMG LABTECH, NC) microplate reader. The samples fluorescence was read at every 5 minutes for 24 cycles with excitation and emission wavelengths of 584 and 620 nm, respectively. Plots were generated using average values from the experiments using GraphPad Prism 7.

S. aureus USA300 LAC [2] = assay: Bacterial resistance development, multiple passage experiment; details: 14 passages/days at sub-MIC
Procedure: This experiment was performed similar to the MIC determination with a few modifications as described (Mishra, et al. (2019) Proc. Natl. Acad. Sci., 116:13517-13522). In short, an exponential phase S. aureus USA300 culture (i.e., optical density at 600 nm≈0.5) was diluted and partitioned into a 96-well polystyrene microplate with ˜10^5 bacteria per well (90 μL aliquots). After treatment with 10 μL of peptide or nafcillin solutions at various concentrations, microplates were incubated at 37° C. overnight and read on a ChroMate® 4300 Microplate Reader at 630 nm (Awareness Technology, FL). Of the wells with sub-MIC levels of the peptides that retained growth, approximately half of the control wells were again reinoculated in fresh TSB with sub-MIC concertation of peptides or antibiotics to attain exponential phase for MIC determination. Up to 15 serial passages of the bacteria cultures were conducted. The increase in the fold change (MIC on given passage/MIC recorded in first day of passage) was used to determine the degree of drug resistance.

[3] = system: human red blood cells (hRBCs); details: red cells of human, 1 h
Procedure: Hemolytic assays of peptides were performed as described (Lakshmaiah, et al. (2020) Proc. Natl. Acad. Sci., 117:19446-19454). Briefly, human red blood cells (hRBCs) were obtained from UNMC Blood Bank. The cells were washed 3× with isotonic saline (0.9% NaCl) and diluted to 2% (v/v). Peptides at various concentrations were added to the 2% blood cells and incubated at 37° C. for 1 hour. Post-incubation, the plates were spun at 2000 rpm for 10 minutes; aliquots of the supernatant were carefully transferred to a fresh 96-well microplate. The amount of cells lysed is proportional to the hemoglobin released and was measured at 545 nm using a ChroMate® microplate reader (Awareness Technology, FL). The percent lysis was calculated by assuming 100% release when human blood cells were treated with 1% Triton™ X-100, and 0% release when incubated with PBS. The peptide concentration that caused 50% lysis of hRBCs is defined as HC50. The cell selectivity index (CSI) was calculated as the ratio between HC50 and the MIC of the corresponding peptide against MRSA.

E. coli ATCC 25922 = system: E. coli ATCC 25922
Procedure: (§1) The antibacterial activity of peptides was evaluated using a standard broth microdilution protocol (Clinical Laboratories Standards Institute (CLSI): M07-A10. Methods for Dilution Antimicrobial Susceptibility Tests for Bacteria that grow aerobically; Approved Standard, Tenth Edition, 2015) with minor modifications as described (Mishra, et al. (2019) Proc. Natl. Acad. Sci., 116:13517-13522). In brief, peptides (10 μL per well) with 2-fold dilutions were made in 96-well polystyrene microplates. Subsequently, the logarithmic phase bacterial cultures (i.e., optical density at 600 nm ˜0.5) were diluted to 0.001 OD and aliquoted to 90 μL per well. The plates were incubated overnight at 37°° C. Bacterial controls were treated with water, and the wells containing only the TSB media were used as blank. Positive controls included the parent peptide LL-37 as well as KR12. Post incubation, the plates were read at 630 nm using ChroMate® 4300 Microplate Reader (Awareness Technology, FL).
(§2) To study the influence of medium conditions on the antimicrobial activity of peptides against S. aureus USA300, different pH, sodium chloride (NaCl), human sera were included into the antibacterial assays. Control experiments in TSB without any additions (pH 7.4) were set up in the same manner. In addition, antimicrobial activities of human LL-37, KR12, and C10-KR8d were compared in 10%, 50%, and 100% TSB as well as in TSB and MHB using E. coli ATCC 25922 and S. aureus USA300 LAC.

S. aureus USA300 LAC [4] = details: USA300
Procedure: as §1, §2

P. aeruginosa PAO1 = system: P. aeruginosa PAO1
Procedure: as §1

[5] = system: Klebsiella pneumonia ATCC 13883; assay: Antibacterial broth microdilution MIC
Procedure: as §1

S. aureus USA300 = assay: Bacterial membrane depolarization (DiBAC4(3)); details: 3.1, 6.25, 12.5, and 25 μM; 40 minutes
Procedure: The experiment was conducted as described (Marks, et al. (2013) PLOS One 8:e63158). In brief, an overnight culture of S. aureus USA300 was subcultured in a fresh TSB medium and grown to the exponential phase. Cells were spun using centrifugation, washed 2× with PBS, resuspended in twice the volume of PBS containing 25 mM glucose, and incubated at 37° C. for 15 minute. For membrane depolarization measurements, 500 nM (final concentration) of the dye DiBAC4 (3) bis(1,3-dibutylbarbituric acid) trimethine oxonol (ANASPEC, CA) was added, and the reaction mixture was vortexed gently. Aliquots of 90 μL of the energized bacteria solution were loaded to the wells, and the plate was fed into a FLUOstar® Omega microplate reader. Fluorescence was read for 20 minutes at excitation and emission wavelengths of 485 and 520 nm, respectively, to get dye normalization. Then, 10 μL of the peptide solution was added and gently mixed. Fluorescence readings were recorded for 40 minutes, where Triton™ X-100 (0.1%) was used as a positive control.

S. aureus Mu50 = system: S. aureus Mu50
Procedure: as §1

S. aureus USA200 = system: S. aureus USA200
Procedure: as §1

S. aureus Newman = system: S. aureus Newman
Procedure: as §1

S. aureus USA400 = system: S. aureus USA400
Procedure: as §1

Structure (SMILES) | HC50 [3] | MIC (μM) EC (E. coli ATCC 25922) | MIC (μM) SA (S. aureus USA300 LAC [4]) | MIC (μM) PA (P. aeruginosa PAO1) | MIC (μM) KP [5] | other results
CO[C@H]1/C=C/O[C@@]2(C)Oc3c(C)c(O)c4c(O)c(cc(O)c4c3C2=O)NC(=O)/C(C)=C\C=C\[C@H](C)[C@H](O)[C@@H](C)[C@@H](O)[C@@H](C)[C@H](OC(C)=O)[C@@H]1C [rifamycin, reference compound] | – | – | – | – | – | membrane permeation (propidium iodide fluorescence) (S. aureus USA300 LAC [1]): unable to achieve the same effect
CCOc1ccc2ccccc2c1C(=O)N[C@@H]1C(=O)N2[C@@H]1SC(C)(C)[C@@H]2C(=O)O [nafcillin, reference compound] | – | – | – | – | – | MIC increase in multiple passage experiment (S. aureus USA300 LAC [2]): over 30 fold
CCCCCCCCCC(=O)N[C@@H](Cc1c[nH]c2ccccc12)C(=O)N[C@H](CC(N)=O)C(=O)N[C@@H](CC(=O)O)C(=O)N[C@@H]1C(=O)NCC(=O)N[C@@H](CCCN)C(=O)N[C@@H](CC(=O)O)C(=O)N[C@H](C)C(=O)N[C@@H](CC(=O)O)C(=O)NCC(=O)N[C@H](CO)C(=O)N[C@@H]([C@H](C)CC(=O)O)C(=O)N[C@@H](CC(=O)c2ccccc2N)C(=O)O[C@@H]1C [daptomycin, reference compound] | – | – | – | – | – | membrane depolarization ability (order) (S. aureus USA300): Triton™ X-100>17BIPHE2>C10-KR8d>daptomycin
CCCCCCCC(=O)N[C@H](CCCCN)C(=O)N[C@H](CCCNC(=N)N)C(=O)N[C@@H](C(=O)N[C@H](Cc1c[nH]c2ccccc12)C(=O)N[C@H](CCC(N)=O)C(=O)N[C@H](CCCNC(=N)N)C(=O)N[C@@H](C(=O)N[C@H](CCCCN)C(=O)N[C@H](CC(=O)O)C(=O)N[C@H](Cc1ccccc1)C(N)=O)[C@H](C)CC)[C@H](C)CC [Peptide C8-KR10d] (Octanoyl-[dK][dR][dI][dW][dQ][dR][dI][dK][dD][dF]-NH2) | 150 µM | 6.2 µM (≈ 9.39 µg/mL) | – | – | 12.5 µM (≈ 18.9 µg/mL) | Minimal inhibitory concentration, Mu50 (S. aureus Mu50): 3.1 µM (≈ 4.7 µg/mL); Minimal inhibitory concentration, USA200 (S. aureus USA200): 3.1 µM (≈ 4.7 µg/mL); Minimal inhibitory concentration, Newman (S. aureus Newman): 3.1 µM (≈ 4.7 µg/mL); Minimal inhibitory concentration, USA400 (S. aureus USA400): 3.1 µM (≈ 4.7 µg/mL)
CCCCCCCC(=O)N[C@@H](CCCCN)C(=O)N[C@@H](CCCNC(=N)N)C(=O)N[C@H](C(=O)N[C@@H](Cc1c[nH]c2ccccc12)C(=O)N[C@@H](CCC(N)=O)C(=O)N[C@@H](CCCNC(=N)N)C(N)=O)[C@@H](C)CC [Peptide C8-KR6] (Octanoyl-KRIWQR-NH2) | >200 µM | 50 µM (≈ 50.6 µg/mL) | >50 µM | >50 µM | >50 µM | –

More lines, main results first:

HC50 [3] | MIC (μM) EC (E. coli ATCC 25922) | MIC (μM) SA (S. aureus USA300 LAC [4]) | MIC (μM) PA (P. aeruginosa PAO1) | MIC (μM) KP [5] | Structure (SMILES) | other results
<25 µM | 6.2 µM (≈ 11.1 µg/mL) | 3.1 µM (≈ 5.53 µg/mL) | 6.2 µM (≈ 11.1 µg/mL) | <6.2 µM | CCCCCCCC(=O)N[C@@H](CCCCN)C(=O)N[C@@H](CCCNC(=N)N)C(=O)N[C@H](C(=O)N[C@@H](Cc1c[nH]c2ccccc12)C(=O)N[C@@H](CCC(N)=O)C(=O)N[C@@H](CCCNC(=N)N)C(=O)N[C@H](C(=O)N[C@@H](CCCCN)C(=O)N[C@@H](CC(=O)O)C(=O)N[C@@H](Cc1ccccc1)C(=O)N[C@@H](CC(C)C)C(=O)N[C@@H](CCCNC(=N)N)C(N)=O)[C@@H](C)CC)[C@@H](C)CC [Peptide C8-KR12] (Octanoyl-KRIWQRIKDFLR-NH2) | –
<25 µM | 12.5 µM (≈ 16.7 µg/mL) | <1.5 µM | 6.2 µM (≈ 8.29 µg/mL) | >50 µM | CCCCCCCCCCCCCC(=O)N[C@@H](CCCCN)C(=O)N[C@@H](CCCNC(=N)N)C(=O)N[C@H](C(=O)N[C@@H](Cc1c[nH]c2ccccc12)C(=O)N[C@@H](CCC(N)=O)C(=O)N[C@@H](CCCNC(=N)N)C(=O)N[C@H](C(=O)N[C@@H](CCCCN)C(N)=O)[C@@H](C)CC)[C@@H](C)CC [Peptide C14-KR8] (Myristoyl-KRIWQRIK-NH2) | –
>200 µM | >50 µM | >50 µM | >50 µM | >50 µM | CCCCCCCC(=O)N[C@@H](CCCCN)C(=O)N[C@@H](CCCNC(=N)N)C(=O)N[C@H](C(=O)N[C@@H](Cc1c[nH]c2ccccc12)C(N)=O)[C@@H](C)CC [Peptide C8-KR4] (Octanoyl-KRIW-NH2) | –
>200 µM | 25 µM (≈ 31.3 µg/mL) | 6.2 µM (≈ 7.77 µg/mL) | 12.5 µM (≈ 15.7 µg/mL) | >50 µM | CCCCCCCC(=O)N[C@@H](CCCCN)C(=O)N[C@@H](CCCNC(=N)N)C(=O)N[C@H](C(=O)N[C@@H](Cc1c[nH]c2ccccc12)C(=O)N[C@@H](CCC(N)=O)C(=O)N[C@@H](CCCNC(=N)N)C(=O)N[C@H](C(=O)N[C@@H](CCCCN)C(N)=O)[C@@H](C)CC)[C@@H](C)CC [Peptide C8-KR8] (Octanoyl-KRIWQRIK-NH2) | –
>200 µM | >50 µM | >50 µM | >50 µM | >50 µM | CCCCCC(=O)N[C@@H](CCCCN)C(=O)N[C@@H](CCCNC(=N)N)C(=O)N[C@H](C(=O)N[C@@H](Cc1c[nH]c2ccccc12)C(=O)N[C@@H](CCC(N)=O)C(=O)N[C@@H](CCCNC(=N)N)C(N)=O)[C@@H](C)CC [Peptide C6-KR6] (Hexanoyl-KRIWQR-NH2) | –
<25 µM | >50 µM | 3.1 µM (≈ 5.62 µg/mL) | 25 µM (≈ 45.3 µg/mL) | 6.2 to 12.5 µM | CCCCCCCCCC(=O)N[C@@H](CCCCN)C(=O)N[C@@H](CCCNC(=N)N)C(=O)N[C@H](C(=O)N[C@@H](Cc1c[nH]c2ccccc12)C(=O)N[C@@H](CCC(N)=O)C(=O)N[C@@H](CCCNC(=N)N)C(=O)N[C@H](C(=O)N[C@@H](CCCCN)C(=O)N[C@@H](CC(=O)O)C(=O)N[C@@H](Cc1ccccc1)C(=O)N[C@@H](CC(C)C)C(=O)N[C@@H](CCCNC(=N)N)C(N)=O)[C@@H](C)CC)[C@@H](C)CC [Peptide C10-KR12] (Decanoyl-KRIWQRIKDFLR-NH2) | –
